Test results reported in the supplement of paper PMC10307832.

Assays:
Assay in all cases: relative viability (nuclei count vs DMSO), 5 days (fraction); higher = more cells survive
XMD8-85 + Vorinostat = compound: CN1CCN(CC1)C2=CC(=C(C=C2)NC3=NC=C4C(=N3)N(C5=CC=CC=C5C(=O)N4C)C)OC [XMD8-85] + O=C(CCCCCCC(=O)Nc1ccccc1)NO [Vorinostat] (partner 1 µM)
In short: (§1)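 Lung cancer cell lines in 1536-well plates got either a single drug or a fixed anchor-drug dose together with five library-drug doses (not always all listed) in √10 steps, by pin tool, on the day after seeding. Nuclei were counted after 5 days, and relative viability is the treated-to-vehicle ratio of nuclei counts. Values are medians of duplicate plates.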

4EGI-1 + Dasatinib = compound: O=C(O)C(Cc1ccccc1[N+](=O)[O-])=NNc1nc(-c2ccc(Cl)c(Cl)c2)cs1 (mixture of isomers) [4EGI-1] + Cc1nc(Nc2ncc(C(=O)Nc3c(C)cccc3Cl)s2)cc(N2CCN(CCO)CC2)n1 [Dasatinib] (partner 0.075 µM)
In short: as §1

4EGI-1 + Decitabine = compound: O=C(O)C(Cc1ccccc1[N+](=O)[O-])=NNc1nc(-c2ccc(Cl)c(Cl)c2)cs1 (mixture of isomers) [4EGI-1] + Nc1ncn([C@H]2C[C@H](O)[C@@H](CO)O2)c(=O)n1 [Decitabine] (partner 2 µM)
In short: as §1

4EGI-1 + Vorinostat = compound: O=C(O)C(Cc1ccccc1[N+](=O)[O-])=NNc1nc(-c2ccc(Cl)c(Cl)c2)cs1 (mixture of isomers) [4EGI-1] + O=C(CCCCCCC(=O)Nc1ccccc1)NO [Vorinostat] (partner 1 µM)
In short: as §1

Cell Line | relative viability (XMD8-85 + Vorinostat; first compound 0.08 µM) | relative viability (XMD8-85 + Vorinostat; first compound 0.253 µM) | relative viability (XMD8-85 + Vorinostat; first compound 0.8 µM) | relative viability (XMD8-85 + Vorinostat; first compound 2.53 µM) | relative viability (XMD8-85 + Vorinostat; first compound 8 µM) | relative viability (4EGI-1 + Dasatinib; first compound 0.5 µM) | relative viability (4EGI-1 + Dasatinib; first compound 1.581 µM) | relative viability (4EGI-1 + Dasatinib; first compound 5 µM) | relative viability (4EGI-1 + Dasatinib; first compound 15.81 µM) | relative viability (4EGI-1 + Dasatinib; first compound 50 µM) | relative viability (4EGI-1 + Decitabine; first compound 0.5 µM) | relative viability (4EGI-1 + Decitabine; first compound 1.581 µM) | relative viability (4EGI-1 + Decitabine; first compound 5 µM) | relative viability (4EGI-1 + Decitabine; first compound 15.81 µM) | relative viability (4EGI-1 + Decitabine; first compound 50 µM) | relative viability (4EGI-1 + Vorinostat; first compound 0.5 µM) | relative viability (4EGI-1 + Vorinostat; first compound 1.581 µM) | relative viability (4EGI-1 + Vorinostat; first compound 5 µM) | relative viability (4EGI-1 + Vorinostat; first compound 15.81 µM) | relative viability (4EGI-1 + Vorinostat; first compound 50 µM)
BEN | 0.554 | 0.536 | 0.627 | 0.501 | 0.455 | 0.328 | 0.302 | 0.329 | 0.282 | 0.233 | 0.758 | 0.635 | 0.78 | 0.578 | 0.522 | 0.63 | 0.599 | 0.589 | 0.557 | 0.442
SK-MES-1 | 0.761 | 1.27 | 1.05 | 1.03 | 0.474 | 0.479 | 0.312 | 0.34 | 0.356 | 0.198 | 0.384 | 0.323 | 0.362 | 0.285 | 0.241 | 1.09 | 0.938 | 1.1 | 0.728 | 0.228
NCI-H1623 | – | – | – | – | – | 0.507 | 0.446 | 0.575 | 0.437 | 0.414 | – | – | – | – | – | – | – | – | – | –
IA-LM | 0.824 | 0.731 | 0.812 | 0.662 | 0.588 | – | – | – | – | – | – | – | – | – | – | 1.04 | 0.91 | 0.871 | 0.698 | 0.261
CAL-12T | 0.724 | 0.861 | – | 0.602 | 0.534 | 0.504 | 0.206 | 0.449 | 0.297 | 0.0969 | – | – | – | – | – | 0.964 | – | 0.95 | 0.759 | 0.67
ABC-1 | 1.2 | 1.27 | 1.01 | 0.969 | 0.533 | 0.585 | 0.501 | 0.586 | 0.38 | 0.192 | 1.28 | – | 1.12 | 1.23 | 0.482 | 1.16 | – | 1.35 | 0.439 | 0.284
LCLC-97TM1 | 0.786 | 0.823 | 0.915 | 0.784 | 0.259 | 0.733 | 0.708 | 0.873 | 0.878 | 0.739 | 0.278 | – | 0.23 | 0.248 | 0.124 | 0.78 | – | 0.856 | 0.843 | 0.0947
PC-14 | 0.463 | 0.566 | 0.667 | – | 0.327 | 0.342 | – | 0.297 | 0.0363 | 0.0488 | 0.227 | – | 0.222 | 0.13 | 0.0662 | 0.865 | – | 0.824 | 0.0883 | 0.0654
NCI-H23 | 0.508 | 0.634 | 0.638 | 0.591 | 0.31 | 0.896 | – | 0.85 | 0.79 | 0.496 | 0.331 | – | 0.337 | 0.45 | 0.2 | 0.779 | – | 0.612 | 0.58 | 0.165
NCI-H727 | 1.09 | 1.23 | 1.17 | 1.24 | 0.984 | 0.323 | 0.436 | 0.344 | 0.272 | 0.23 | 0.731 | 0.854 | 0.858 | 0.808 | 0.606 | 1.13 | 0.94 | 1.22 | 1.04 | 0.714
A549 | – | – | – | – | – | – | – | – | – | – | 0.345 | 0.377 | 0.259 | 0.177 | 0.0347 | – | – | – | – | –
COR-L 105 | 0.737 | 0.91 | 0.768 | 0.661 | 0.543 | 0.357 | 0.335 | 0.326 | 0.235 | 0.248 | 0.681 | 0.558 | 0.587 | 0.472 | 0.523 | 0.823 | 0.672 | 0.777 | 0.699 | 0.592
NCI-H650 | 0.447 | 0.388 | 0.433 | 0.465 | 0.295 | 0.5 | – | 0.463 | 0.459 | 0.297 | 0.352 | – | 0.34 | 0.332 | 0.322 | 0.528 | – | 0.472 | 0.488 | 0.296
NCI-H1975 | 0.708 | 0.691 | 0.706 | 0.693 | 0.473 | 0.372 | 0.363 | 0.302 | 0.282 | 0.249 | 0.367 | 0.433 | 0.375 | 0.355 | 0.221 | 0.79 | 0.679 | 0.754 | 0.7 | 0.357
NCI-H2023 | 0.405 | 0.835 | – | 0.665 | 0.475 | 0.599 | – | 0.605 | 0.226 | 0.0859 | 0.242 | 0.173 | 0.221 | 0.128 | 0.0871 | 0.91 | – | 0.722 | 0.138 | 0.0836
EMC-BAC-2 | 0.424 | 0.468 | 0.413 | 0.385 | 0.185 | 0.369 | 0.298 | 0.361 | 0.362 | 0.296 | 1.21 | – | 0.972 | 0.904 | 0.436 | 0.472 | – | 0.634 | 0.318 | 0.168
LK-2 | 0.25 | 0.421 | 0.271 | 0.264 | 0.206 | 0.253 | – | 0.309 | 0.254 | 0.134 | 0.273 | – | 0.318 | 0.315 | 0.166 | 0.314 | 0.174 | 0.337 | 0.354 | 0.236
EPLC-272H | 0.414 | 0.401 | 0.335 | 0.296 | 0.243 | 0.504 | – | 0.34 | 0.252 | 0.138 | 0.45 | – | 0.359 | 0.31 | 0.305 | 0.563 | 0.493 | 0.337 | 0.295 | 0.12
HCC-366 | 0.292 | 0.346 | 0.304 | 0.378 | 0.181 | 0.772 | 0.587 | 0.629 | 0.67 | 0.308 | 0.364 | 0.29 | 0.549 | 0.256 | 0.0833 | 0.469 | 0.149 | 0.431 | 0.34 | 0.0704
